Patent publication US20020122768A1, “Stable radiopharmaceutical compositions and methods for preparation thereof” (priority 2000, published 2002)

Tests used:
Assay type in all cases: physicochemical
[1] = Solution stability of ^177Lu-C at −78° C., RCP by radio-HPLC; conditions: ^177Lu-C prepared using 2 mg GA, degassed, second stabilizer (20 mg AA, 20 mg DSA, 10 mg 2,3,4-THBA, 10 mg 3,4,5-THBA) added post-labeling
[2] = Solution stability of ^90Y-B at −78° C., RCP by radio-HPLC; conditions: ^90Y-B prepared with GA
Protocol: (§1) The integrity of a radiopharmaceutical is measured by the radiochemical purity (RCP) of the radiolabeled compound using ITLC or more preferably HPLC. The advantage of using HPLC is that radio-impurities caused by radiolytic degradation can be separated from the radiopharmaceutical under optimized chromatographic conditions. […] The radiopharmaceutical compositions of this invention are effective in maintaining the long-term stability of samples that have been frozen, thawed, and re-tested periodically for 7 days.
(§2) The initial RCP of a radiopharmaceutical is largely dependent on radiolabeling conditions such as pH, heating temperature and time. Once a radiopharmaceutical is prepared in high yield, the stability of the radiopharmaceutical composition is measured by the` RCP change of the radiopharmaceutical over a certain period of time. For comparison purposes, sodium gentisate or sodium ascorbate was often used as the reference since they have been used in various radiopharmaceutical formulations.
(§3) HPLC method 2 used a HP-1100 HPLC system with a UV/visible detector (λ=220 nm), an IN-US radio-detector, and a Zorbax C18 column (4.6 mm×250 mm, 80 Å pore size). The flow rate was 1 mL/min with a gradient mobile phase starting from 92% solvent A (0.025 M ammonium acetate buffer, pH 6.8) and 8% solvent B (acetonitrile) at 0 min to 90% solvent A and 10% solvent B at 18 min, followed by an isocratic wash using 40% of solvent A and 60% solvent B from 19 to 25 min.
The ITLC method used Gelman Sciences silica-gel ITLC paper strips and 1:1 mixture of acetone and saline as eluant. By this method, the radiolabeled compounds migrate to the solvent front while [^90Y]/^177Lu]colloid and [^90Y]/^177Lu]acetate remain at the origin. […]
The 0.5 M ammonium acetate buffer (pH 8.0) was first degassed under vacuum for 1-2 min. COMPOUND B and gentisic acid (sodium salt, GA) were dissolved in the degassed buffer to give a concentration of 100 μg/mL for COMPOUND B and 20 mg/mL for GA. The resulting solution was immediately degassed under vacuum for another 1-2 min. To a clean sealed 5 mL vial was added 1.0 mL of the degassed 0.5 M ammonium acetate buffer (pH 8.0) containing 100 μg COMPOUND B and 10 mg GA. The solution was degassed again under vacuum. Upon addition of ˜20 μL of ^90YCl3 solution (˜20 mCi) in 0.05 N HCl, the reaction mixture was heated at 100° C. for 5 min. After cooling to room temperature, a sample of the resulting solution was diluted 20-fold with saline containing gentisate (10 mg/mL), and was then analyzed by HPLC (Method 2, injection volume=1-2 μL) and ITLC. […] To the solution above was added 0.5 mL of sodium ascorbate solution (40 mg/mL in 0.5 M ammonium acetate buffer, pH=7.4). The resulting mixture was then kept in a dry-ice box (−78° C.) for 7 days. Samples were analyzed at t=0, 3 and 7 days.
The 0.5 M ammonium acetate buffer (pH 8.0) was first degassed under vacuum for 1-2 min. COMPOUND B and gentisic acid (sodium salt, GA) were dissolved in the degassed buffer to give a concentration of 100 μg/mL for COMPOUND B and 20 mg/mL for GA. The resulting solution was immediately degassed under vacuum for another 1-2 min. To a clean sealed 5 mL vial was added 1.0 mL of the degassed 0.5 M ammonium acetate buffer (pH 8.0) containing 100 μg COMPOUND B and 10 mg GA. The solution was degassed again under vacuum. Upon addition of ˜20 μL of ^90YCl3 solution (˜20 mCi) in 0.05 N HCl, the reaction mixture was heated at 100° C. for 5 min. After cooling to room temperature, a sample of the resulting solution was diluted 20-fold with saline containing gentisate (10 mg/mL), and was then analyzed by HPLC (Method 2, injection volume=1-2 μL) and ITLC. […] To the solution above was added 0.5 mL of 2,3,4-trihydroxybenzoic acid solution (20 mg/mL in 0.5 M ammonium acetate buffer, pH=6.5). The resulting mixture was then kept in a dry-ice box (−78° C.) for 7 days. Samples were analyzed at t=0, 3 and 7 days. […]

[3] = Solution stability of ^177Lu-C at −78° C., RCP by radio-HPLC; conditions: ^177Lu-C prepared using 2 mg GA
Protocol: as §1, §2
as §3, with “method 3” for “method 2”, “from 90%” for “from 92%”, “and 10%” for “and 8%”, “to 88%” for “to 90%”, “and 12%” for “and 10%”
The ITLC method used Gelman Sciences silica-gel ITLC paper strips and 1:1 mixture of acetone and saline as eluant. By this method, the radiolabeled compounds migrate to the solvent front while [^90Y]/^177Lu]colloid and [^90Y]/^177Lu]acetate remain at the origin.
(§4) The 0.5 M ammonium acetate buffer (pH 8.0) was first degassed under vacuum for 1-2 min. COMPOUND C and gentisic acid (sodium salt, GA) were dissolved in the degassed buffer to give a concentration of 100 μg/mL for COMPOUND C and 2 mg/mL for GA. The resulting solution was immediately degassed under vacuum for another 1-2 min. To a clean sealed 5 mL vial was added 1.0 mL of the degassed 0.5 M ammonium acetate buffer (pH 8.0) containing 100 μg COMPOUND C and 2 mg GA. The solution was degassed again under vacuum. Upon addition of ˜20 μL of ^177LuCl3 solution (˜20 mCi) in 0.05 N HCl, the reaction mixture was heated at 100° C. for 5 min. After cooling to room temperature, a sample of the resulting solution was analyzed by HPLC (Method 3, injection volume=5 μL) and ITLC. […] To the solution above was added 0.5 mL of sodium ascorbate solution (40 mg/mL in 0.5 M ammonium acetate buffer, pH=7.4). The resulting mixture was then kept in a dry-ice box (−78° C.) for 7 days. Samples were analyzed at t=0, 3 and 7 days.
as §4, with “COMPOUND” for “The 0.5 M ammonium acetate buffer (pH 8.0) was first degassed under vacuum for 1-2 min. COMPOUND”, “1.0 μL” for “1.0 mL”, “of 2,3,4-THBA” for “of sodium ascorbate”, “solution (20” for “solution (40”
COMPOUND C and gentisic acid (sodium salt, GA) were dissolved in the degassed buffer to give a concentration of 100 μg/mL for COMPOUND C and 2 mg/mL for GA. The resulting solution was immediately degassed under vacuum for another 1-2 min. […]

[4] = degassed, second stabilizer (20 mg AA, 20 mg DSA, 10 mg 2,3,4-THBA, 10 mg HABA) added post-labeling
[5] = second stabilizer added post-labeling, t = 0 to 7 days
[6] = degassed, second stabilizer (20 mg AA, 20 mg DSA, 10 mg 2,3,4-THBA, 10 mg 3,4,5-THBA) added post-labeling

RCP (%) t = 1 day [1]: 97.7% | RCP (%) t = 0 [2, 4]: 95.0% | RCP (%) t = 3 days [2, 4]: 93.9% | RCP (%) t = 7 days [2, 4]: 94.5% | RCP (%) change [2, 5]: 0.5% | RCP (%) t = 0 [3, 6]: 97.6% | RCP (%) t = 3 days [3, 6]: 97.5% | RCP (%) t = 7 days [3, 6]: 93.0% | RCP (%) change [3, 5]: 4.6%
Structure (SMILES): O=C1O[C@H]([C@@H](O)CO)C([O-])=C1O.[Na+] [AA, sodium ascorbate, reference compound]
